Activity calls are given as the source filed them. The calls are words filed in the database; no cut-off is given here.
Assays:
[1] = target: Voltage-gated inwardly rectifying potassium channel KCNH2 (Homo sapiens, UniProt Q12809); assay: Displacement of [3H]dofetilide from recombinant human ERG stably expressed in HEK293 cell membranes measured after 60 mins by scintillation counting analysis; format: toxicity, Membrane
[2] = target: D(3) dopamine receptor (Homo sapiens, UniProt P35462); assay: Displacement of [3H]methyl-spiperone from recombinant human D3 receptor measured after 60 mins by scintillation counting analysis
D(3) dopamine receptor, sequence (P35462 whole entry): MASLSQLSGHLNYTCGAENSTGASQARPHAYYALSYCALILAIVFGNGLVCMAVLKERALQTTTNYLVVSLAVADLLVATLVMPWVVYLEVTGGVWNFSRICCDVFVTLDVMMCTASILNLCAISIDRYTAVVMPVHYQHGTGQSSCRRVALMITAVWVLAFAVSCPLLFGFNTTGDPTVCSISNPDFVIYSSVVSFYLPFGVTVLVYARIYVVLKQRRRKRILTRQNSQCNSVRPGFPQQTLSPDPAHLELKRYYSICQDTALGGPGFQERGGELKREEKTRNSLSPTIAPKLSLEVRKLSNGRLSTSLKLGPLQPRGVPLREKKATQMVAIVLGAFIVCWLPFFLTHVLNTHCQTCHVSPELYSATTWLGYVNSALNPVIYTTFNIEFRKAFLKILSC

[3] = target: Sigma intracellular receptor 2 (Homo sapiens) (UniProt Q5BJF2); assay: Displacement of [3H]-DTG/(+) pentazocine from human sigma2 receptor at 3 uM measured after 60 mins by scintillation counting analysis
Sigma intracellular receptor 2 (Homo sapiens), sequence (Q5BJF2 whole entry): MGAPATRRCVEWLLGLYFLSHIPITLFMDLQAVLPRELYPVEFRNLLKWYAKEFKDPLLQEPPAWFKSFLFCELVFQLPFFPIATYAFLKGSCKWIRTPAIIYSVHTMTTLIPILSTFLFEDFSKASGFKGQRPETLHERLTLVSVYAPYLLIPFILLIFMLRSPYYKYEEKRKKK

[4] = target: D(2) dopamine receptor (Homo sapiens, UniProt P14416); assay: Displacement of [3H]methyl-spiperone from recombinant human D2S receptor measured after 60 mins by scintillation counting analysis
D(2) dopamine receptor, sequence (P14416 whole entry): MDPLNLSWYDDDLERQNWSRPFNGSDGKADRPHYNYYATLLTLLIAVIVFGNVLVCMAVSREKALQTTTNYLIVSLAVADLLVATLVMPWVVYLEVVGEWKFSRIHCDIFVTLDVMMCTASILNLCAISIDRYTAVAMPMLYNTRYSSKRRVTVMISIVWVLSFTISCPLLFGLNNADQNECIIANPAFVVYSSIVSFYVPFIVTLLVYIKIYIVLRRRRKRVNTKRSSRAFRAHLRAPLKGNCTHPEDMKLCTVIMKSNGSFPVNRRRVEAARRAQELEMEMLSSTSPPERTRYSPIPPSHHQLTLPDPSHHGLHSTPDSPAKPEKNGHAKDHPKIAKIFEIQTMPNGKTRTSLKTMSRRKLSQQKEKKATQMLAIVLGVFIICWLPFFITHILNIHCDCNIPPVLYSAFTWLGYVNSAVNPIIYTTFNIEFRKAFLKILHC

[5] = target: D(1A) dopamine receptor (Homo sapiens) (UniProt P21728); assay: Displacement of [3H]SCH 23390 from recombinant human D1 receptor at 3 uM measured after 60 mins by scintillation counting analysis
D(1A) dopamine receptor (Homo sapiens), sequence (P21728 whole entry): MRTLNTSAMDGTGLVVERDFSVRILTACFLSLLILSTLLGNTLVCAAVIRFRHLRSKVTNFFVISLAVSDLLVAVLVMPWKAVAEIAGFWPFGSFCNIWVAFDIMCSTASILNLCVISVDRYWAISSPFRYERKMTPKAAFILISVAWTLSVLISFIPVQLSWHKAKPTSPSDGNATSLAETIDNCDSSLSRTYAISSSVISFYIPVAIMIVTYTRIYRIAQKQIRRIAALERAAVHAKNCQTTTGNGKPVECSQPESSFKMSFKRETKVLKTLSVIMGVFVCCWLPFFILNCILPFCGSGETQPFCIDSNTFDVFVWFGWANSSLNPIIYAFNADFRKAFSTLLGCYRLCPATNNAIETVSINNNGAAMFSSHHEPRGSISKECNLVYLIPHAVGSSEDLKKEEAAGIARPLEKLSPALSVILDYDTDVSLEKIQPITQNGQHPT

Voltage-gated inwardly rectifying potassium channel KCNH2, sequence (Q12809 whole entry): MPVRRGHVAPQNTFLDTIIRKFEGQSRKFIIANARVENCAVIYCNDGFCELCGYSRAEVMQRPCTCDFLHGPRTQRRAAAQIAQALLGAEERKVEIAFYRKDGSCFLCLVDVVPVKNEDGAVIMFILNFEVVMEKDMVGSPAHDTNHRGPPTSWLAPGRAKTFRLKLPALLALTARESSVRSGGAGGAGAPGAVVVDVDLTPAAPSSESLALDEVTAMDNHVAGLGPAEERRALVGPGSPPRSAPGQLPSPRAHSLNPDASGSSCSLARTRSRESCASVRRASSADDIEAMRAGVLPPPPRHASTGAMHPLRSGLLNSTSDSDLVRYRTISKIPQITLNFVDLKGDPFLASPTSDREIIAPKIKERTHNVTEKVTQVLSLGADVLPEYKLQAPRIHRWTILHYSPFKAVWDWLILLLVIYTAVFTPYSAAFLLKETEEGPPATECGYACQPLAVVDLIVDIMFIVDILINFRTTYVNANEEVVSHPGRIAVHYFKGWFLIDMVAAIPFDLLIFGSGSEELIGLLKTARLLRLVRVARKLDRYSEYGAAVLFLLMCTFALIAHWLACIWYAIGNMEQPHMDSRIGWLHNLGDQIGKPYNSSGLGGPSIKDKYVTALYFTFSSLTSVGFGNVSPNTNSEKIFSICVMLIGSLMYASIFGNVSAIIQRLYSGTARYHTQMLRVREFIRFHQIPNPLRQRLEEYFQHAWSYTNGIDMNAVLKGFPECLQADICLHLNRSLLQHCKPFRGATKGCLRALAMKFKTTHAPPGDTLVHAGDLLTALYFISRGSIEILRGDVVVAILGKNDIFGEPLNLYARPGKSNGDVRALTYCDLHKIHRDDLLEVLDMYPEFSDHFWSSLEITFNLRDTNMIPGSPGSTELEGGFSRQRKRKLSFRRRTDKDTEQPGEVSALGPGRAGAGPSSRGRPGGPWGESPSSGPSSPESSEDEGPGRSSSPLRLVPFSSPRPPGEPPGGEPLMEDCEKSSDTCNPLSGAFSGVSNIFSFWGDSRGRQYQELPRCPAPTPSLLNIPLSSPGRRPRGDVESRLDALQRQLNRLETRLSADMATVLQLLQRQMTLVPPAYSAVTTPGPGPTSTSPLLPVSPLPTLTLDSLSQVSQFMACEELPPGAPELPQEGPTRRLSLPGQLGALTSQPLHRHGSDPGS

Structure (SMILES): c1ccc(Cc2cn(C3CCN(Cc4ccccc4)CC3)nn2)cc1
- Ki [1]: 4.6 µM
- Ki [2]: > 10 µM
- Activity [3]: Active
- Ki [4]: 6.3 µM
- Activity [5]: Active
